A short description of test [1]: Induction of penile erection in male rats. The test is classed as in vivo, rat. Conditions: for induction of penile erection: male Sprague-Dawley rats, 60 minute observation, No. 154 as trifluoracetic acid salt, No. 155 as acetate salt. From the text: Each dose group contained six or seven animals, with video observation for sixty minutes following administration.

Test [2] in a line: Rat feeding study: food intake and body weight change. Conditions: for effect on food intake and rate of change in body weight: rat feeding studies, 0.3 and 1 mg/kg, bremelanotide as positive control; for decrease in food consumption compared to control: rat. The test is classed as in vivo. Here is the method: Change in food intake and body weight was evaluated for selected peptides administered by intravenous (IV) or subcutaneous injection routes. Male Sprague-Dawley rats were obtained from Hilltop Lab Animals, Inc. (Scottsdale, Pa.) or other vendors. Animals were individually housed in conventional polystyrene hanging cages and maintained on a controlled 12 hour on/off light cycle. Water and pelleted food was provided ad libitum. The rats were dosed IV with vehicle or selected peptides (0.3 to 1.0 mg/kg), or dosed subcutaneously with vehicle or selected peptides (doses up to 30 mg/kg). The changes in body weight and food intake for the 24 hour period after dosing was determined. The changes in body weight and food intake for the 48 hour and 72 hour periods after dosing can also be measured to determine reversal of changes in body weight and food intake effects back to baseline levels.

Test [3] addresses T1, hMC4-R (Homo sapiens (Human), UniProt P32245). The test can be described thus: Assay for agonist activity (cAMP accumulation, HEK-293 cells expressing hMC4-R). Conditions: agonist = intrinsic activity 70% or higher; partial agonist 10-70%. Background: Changes in cAMP serve as a functional read-out for many G protein-coupled receptors.
Description: By “intrinsic activity” is meant the maximal functional activity achievable by a compound in a specified melanocortin receptor expressing cell system, such as the maximal stimulation of adenylyl cyclase.
Accumulation of intracellular cAMP was examined as a measure of the ability of the peptides of the present invention to elicit a functional response in HEK-293 cells that express MC4-R. Confluent HEK-293 cells that express recombinant hMC4-R were detached from culture plates by incubation in enzyme-free cell dissociation buffer. Dispersed cells were suspended in Earle's Balanced Salt Solution containing 10 mM HEPES (pH 7.5), 1 mM MgCl2, 1 mM glutamine, 0.5% albumin and 0.3 mM 3-isobutyl-1-methyl-xanthine (IBMX), a phosphodiesterase inhibitor. […] Cells were exposed for 15 minutes at 37° C. to peptides of the present invention dissolved in DMSO (final DMSO concentration of 1%) at a concentration range of 0.05-5000 nM in a total assay volume of 200 μL. […] Data analysis was performed by nonlinear regression analysis with Graph-Pad Prism® software. The maximum efficacies of the test peptides of the present invention were compared to that achieved by the reference melanocortin agonist NDP-αMSH.
In test [4] the target is T1, hMC4-R. The test can be described thus: Competitive binding assay using Eu-NDP-α-MSH. Conditions: Eu-NDP-α-MSH (values marked *); averaged; read-out: MC4-R Ki. Here is the method: Alternatively, a competitive inhibition binding assay was performed employing Eu-NDP-α-MSH (PerkinElmer Life Sciences catalog No. AD0225) with determination by time-resolved fluorometry (TRF) of the lanthanide chelate. […] After incubation for 90 minutes at 37° C., the reaction was stopped by filtration over AcroWell 96-well filter plates (Pall Life Sciences). The filter plates were washed 4 times with 200 μL of ice-cold phosphate-buffered saline. DELFIA Enhancement solution (PerkinElmer Life Sciences) was added to each well. […] Each assay was conducted in duplicate and mean values were utilized. Ki values were determined by curve-fitting with Graph-Pad Prism® software using a one-site fixed-slope competition binding model.

The target in test [5] is T1, hMC4-R. The test can be described thus: Competitive inhibition binding assay using [I125]-NDP-α-MSH. Conditions: [I125]-NDP-α-MSH (unmarked values); averaged; read-out: MC4-R Ki. As for the experimental part: A competitive inhibition binding assay is performed using membrane homogenates prepared from HEK-293 cells that express recombinant hMC4-R, hMC3-R, or hMC5-R, and from B-16 mouse melanoma cells (containing endogenous MC1-R). In some instances, HEK-293 cells that express recombinant hMC1-R were employed. In the examples that follow, all MC3-R, MC4-R and MC5-R values are for human recombinant receptors. […] Membrane homogenates were incubated with 0.2 nM (for hMC4-R) 0.4 nM (for MC3-R and MC5-R) or 0.1 nM (for mouse B16 MC1-R or hMC1-R) [I^125]-NDP-α-MSH (Perkin Elmer) and increasing concentrations of test peptides of the present invention in buffer containing 25 mM HEPES buffer (pH 7.5) with 100 mM NaCl, 2 mM CaCl2, 2 mM MgCl2, 0.3 mM 1,10-phenanthroline, and 0.2% bovine serum albumin. After incubation for 60 minutes at 37° C., the assay mixture was filtered and the membranes washed three times with ice-cold buffer. Filters were dried and counted in a gamma counter for bound radioactivity. […] Maximal specific binding (100%) was defined as the difference in radioactivity (cpm) bound to cell membranes in the absence and presence of 1 μM NDP-α-MSH. […] Each assay was conducted in triplicate and the actual mean values are described, with results less than 0% reported as 0%. Ki values for test peptides of the present invention were determined using Graph-Pad Prism® curve-fitting software.

Where [6] appears, read: 1 mg/kg, 0-2, 0-4 and 0-20 hour periods.

The source of these data is patent publication US9458201B2, “Melanocortin receptor-specific heptapeptides” (Palatin Technologies, Inc., priority 2009, dated 2016).

Each structure is given as a SMILES string. Peptide text beside a SMILES is read from it.

T1 sequence (P32245 whole entry): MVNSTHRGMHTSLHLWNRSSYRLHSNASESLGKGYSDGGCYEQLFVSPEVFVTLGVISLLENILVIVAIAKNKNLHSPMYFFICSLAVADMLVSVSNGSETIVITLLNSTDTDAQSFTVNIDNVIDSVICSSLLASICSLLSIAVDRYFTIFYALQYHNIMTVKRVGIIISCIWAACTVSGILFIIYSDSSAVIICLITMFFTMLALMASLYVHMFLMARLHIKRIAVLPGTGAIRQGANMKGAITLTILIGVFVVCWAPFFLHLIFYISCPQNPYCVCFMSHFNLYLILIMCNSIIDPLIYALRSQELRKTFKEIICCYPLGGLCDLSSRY

Turning to `CC(=O)N[C@@H](CCCNC(=N)N)C(=O)N[C@H]1CC(=O)NCCCC[C@@H](C(N)=O)NC(=O)[C@H](Cc2c[nH]c3ccccc23)NC(=O)[C@H](CCCNC(=N)N)NC(=O)[C@@H](Cc2ccccc2)NC(=O)[C@H](Cc2c[nH]cn2)NC1=O` [Peptide No. 1, Ac-Arg-cyclo(Asp-His-D-Phe-Arg-Trp-Lys)-NH2], in test [1] (rat, IV, doses of 0.3 or 1 mg/kg), the “observed spontaneous erections compared to vehicle” value is given as “statistically significant increase”. Also, the “effect on food intake and rate of change in body weight” value in test [2] is “reduce food intake and decrease the rate of change in body weight”. In addition, the “decrease in food consumption compared to control” value in test [2] (0.3 mg/kg, 0-2, 0-4 and 0-20 hour periods) was “statistically significant”; in test [2] (setting [6]), “statistically significant”. Moreover, at hMC4-R [3], the “functional classification at MC4-R (agonist / partial agonist)” value is given as “agonist”.

As to `CC(=O)N[C@@H](CCCNC(=N)N)C(=O)N[C@H]1CC(=O)NCCCC[C@@H](C(N)=O)NC(=O)[C@H](Cc2c[nH]c3ccccc23)NC(=O)[C@H](CCCNC(=N)N)NC(=O)[C@@H](Cc2ccccc2)NC(=O)[C@H](C(C)C)NC1=O` [Peptide No. 16, Ac-Arg-cyclo(Asp-Val-D-Phe-Arg-Trp-Lys)-NH2], in test [2], the “effect on food intake and rate of change in body weight” value is “reduce food intake and decrease the rate of change in body weight”. Also, the “decrease in food consumption compared to control” value was “statistically significant” in test [2] (0.3 mg/kg, 0-2 and 0-4 hour periods); “statistically significant” in test [2] (setting [6]). Also, the “functional classification at MC4-R (agonist / partial agonist)” value on hMC4-R [3] is reported as “partial agonist”.

`CC(=O)N[C@@H](CCCNC(=N)N)C(=O)N[C@H]1CC(=O)NCCCC[C@@H](C(N)=O)NC(=O)[C@H](Cc2c[nH]c3ccccc23)NC(=O)[C@H](CCCNC(=N)N)NC(=O)[C@@H](Cc2ccccc2)NC(=O)[C@H](CCC(N)=O)NC1=O` [Peptide No. 32, Ac-Arg-cyclo(Asp-Gln-D-Phe-Arg-Trp-Lys)-NH2]: the observed spontaneous erections result in test [1] (rat, subcutaneous, doses of 1, 3 or 10 mg/kg) was “increase in observed spontaneous erections”. The “functional classification at MC4-R (agonist / partial agonist)” value on hMC4-R [3] was “agonist”.

By Ki is commonly meant a dissociation constant, usually derived from enzyme kinetics or from competition with a known ligand. As to `CC(=O)N[C@@H](CCCNC(=N)N)C(=O)N[C@H]1CC(=O)NCCCC[C@@H](C(N)=O)NC(=O)[C@H](Cc2c[nH]c3ccccc23)NC(=O)[C@H](CCCNC(=N)N)NC(=O)[C@@H](Cc2ccccc2)NC(=O)[C@H](CCNC(=O)CN)NC1=O` [compound 94, Ac-Arg-cyclo(Asp-Dab(Glycly)-D-Phe-Arg-Trp-Lys)-NH2], the inhibitory constant (Ki) on hMC4-R [4] worked out at 0.11 µM.

Consider `CC(=O)N[C@H](CCCNC(=N)N)C(=O)N[C@H]1CCCNC(=O)CC[C@@H](C(N)=O)NC(=O)[C@H](Cc2c[nH]c3ccccc23)NC(=O)[C@H](CCCNC(=N)N)NC(=O)[C@@H](Cc2ccccc2)NC(=O)[C@H](Cc2c[nH]cn2)NC1=O` [compound 98, Ac-D-Arg-cyclo(Orn-His-D-Phe-Arg-Trp-Glu)-NH2], for which, at hMC4-R [4], the Ki was 0.004 µM.

Take `CC(=O)N[C@@H](CCCNC(=N)N)C(=O)N[C@H]1CCCC(=O)NCC[C@@H](C(N)=O)NC(=O)[C@H](Cc2c[nH]c3ccccc23)NC(=O)[C@H](CCCNC(=N)N)NC(=O)[C@@H](Cc2ccccc2)NC(=O)[C@H](Cc2c[nH]cn2)NC1=O` [compound 126, Ac-Arg-cyclo(hGlu-His-D-Phe-Arg-Trp-Dab)-NH2]: the “functional classification at MC4-R (agonist / partial agonist)” value on hMC4-R [3] is “agonist”.

In the case of `CC(=O)N[C@@H](CCCNC(=N)N)C(=O)N[C@H]1CCCC(=O)NCC[C@@H](C(N)=O)NC(=O)[C@H](Cc2c[nH]c3ccccc23)NC(=O)[C@H](CCCNC(=N)N)NC(=O)[C@@H](Cc2ccccc2)NC(=O)[C@H](CCN)NC1=O` [compound 127, Ac-Arg-cyclo(hGlu-Dab-D-Phe-Arg-Trp-Dab)-NH], the “functional classification at MC4-R (agonist / partial agonist)” value on hMC4-R [3] is listed as “agonist”.

On to `CC(=O)N[C@@H](CCCNC(=N)N)C(=O)N[C@H]1CCNC(=O)CCC[C@@H](C(N)=O)NC(=O)[C@H](Cc2c[nH]c3ccccc23)NC(=O)[C@H](CCCNC(=N)N)NC(=O)[C@@H](Cc2ccccc2)NC(=O)[C@H](Cc2c[nH]cn2)NC1=O` [compound 128, Ac-Arg-cyclo(Dab-His-D-Phe-Arg-Trp-hGlu)-NH2], for which the “functional classification at MC4-R (agonist / partial agonist)” value at hMC4-R [3] is listed as “agonist”.

As to `CC(=O)N[C@@H](CCCNC(=N)N)C(=O)N[C@H]1CCNC(=O)CCC[C@@H](C(N)=O)NC(=O)[C@H](Cc2c[nH]c3ccccc23)NC(=O)[C@H](CCCNC(=N)N)NC(=O)[C@@H](Cc2ccccc2)NC(=O)[C@H](CCN)NC1=O` [compound 129, Ac-Arg-cyclo(Dab-Dab-D-Phe-Arg-Trp-hGlu)-NH2], at hMC4-R [3], the “functional classification at MC4-R (agonist / partial agonist)” value is “agonist”.

As for `CC(=O)N[C@@H](CCCNC(=N)N)C(=O)N[C@H]1CCNC(=O)CCC[C@@H](C(N)=O)NC(=O)[C@H](Cc2c[nH]c3ccccc23)NC(=O)[C@H](CCCNC(=N)N)NC(=O)[C@@H](Cc2ccccc2)NC(=O)[C@H](CCN)NC1=O` [compound 136, Ac-Arg-cyclo(Dab-Dab-D-Phe-Arg-Trp-hGlu)-OH], on hMC4-R [5], the Ki is 0.035 µM.

As for `CC(=O)N[C@@H](CCCNC(=N)N)C(=O)N[C@H]1CC(=O)NCCCC[C@@H](C(N)=O)NC(=O)[C@H](Cc2c[nH]c3ccccc23)NC(=O)[C@H](CCCNC(=N)N)NC(=O)[C@@H](Cc2ccccc2)NC(=O)[C@H](CCN)NC1=O` [compound 141, Ac-Cit-cyclo(Asp-Dab-D-Phe-Arg-Trp-Lys)-NH2], the Ki at hMC4-R [5] came out at 0.009 µM.

On to `CC(=O)N[C@@H](CCCNC(=N)N)C(=O)N[C@H]1CCCNC(=O)CC[C@@H](C(N)=O)NC(=O)[C@H](Cc2c[nH]c3ccccc23)NC(=O)[C@H](CCCNC(=N)N)NC(=O)[C@@H](Cc2ccccc2)NC(=O)[C@H](CC(N)=O)NC1=O` [compound 154, Ac-Arg-cyclo(Orn-Asn-D-Phe-Arg-Trp-Glu)-NH2], for which the “induction of penile erection” value in test [1] (subcutaneous) is “robustly induce a penile erection”.

Turning to `CC(=O)N[C@@H](CCCNC(=N)N)C(=O)N[C@H]1CCCCNC(=O)C[C@@H](C(N)=O)NC(=O)[C@H](Cc2c[nH]c3ccccc23)NC(=O)[C@H](CCCNC(=N)N)NC(=O)[C@@H](Cc2ccccc2)NC(=O)[C@H](CC(N)=O)NC1=O` [compound 155, Ac-Arg-cyclo(Lys-Asn-D-Phe-Arg-Trp-Asp)-NH2] (HELM PEPTIDE1{[ac].R.K.N.[dF].R.W.D.[am]}$PEPTIDE1,PEPTIDE1,3:R3-8:R3$$$V2.0), in test [1] (subcutaneous), the “induction of penile erection” value is “robustly induce a penile erection”.
